The target in test [1] is mouse TAAR1 (Mus musculus (Mouse), UniProt Q923Y8). The experiment in a line: Radioligand binding assay on mouse TAAR1. The conditions noted are these: membranes of HEK-293 cells stably expressing mouse TAAR1; first value of cell mouse/rat. As to the method: (§1) Construction of TAAR Expression Plasmids and Stably Transfected Cell Lines
(§2) For the construction of expression plasmids the coding sequences of human, rat and mouse TAAR 1 were amplified from genomic DNA essentially as described by Lindemann et al.. The Expand High Fidelity PCR System (Roche Diagnostics) was used with 1.5 mM Mg^2+ and purified PCR products were cloned into pCR2.1-TOPO cloning vector (Invitrogen) following the instructions of the manufacturer. PCR products were subcloned into the pIRESneo2 vector (BD Clontech, Palo Alto, Calif.), and expression vectors were sequence verified before introduction in cell lines.
(§3) HEK293 cells (ATCC # CRL-1573) were cultured essentially as described by Lindemann et al. (2005). For the generation of stably transfected cell lines HEK293 cells were transfected with the pIRESneo2 expression plasmids containing the TAAR coding sequences (described above) with Lipofectamine 2000 (Invitrogen) according to the instructions of the manufacturer, and 24 hrs post transfection the culture medium was supplemented with 1 mg/ml G418 (Sigma, Buchs, Switzerland). After a culture period of about 10 d clones were isolated, expanded and tested for responsiveness to trace amines (all compounds purchased from Sigma) with the cAMP Biotrak Enzyme immunoassay (EIA) System (Amersham) following the non-acetylation EIA procedure provided by the manufacturer.
Radioligand Binding Assay on Mouse TAAR1
(§4) Membrane Preparation and Radioligand Binding.
HEK-293 cells stably expressing mouse TAAR1 were maintained at 37° C. and 5% CO2 in DMEM high glucose medium, containing fetal calf serum (10%, heat inactivated for 30 min at 56° C.), penicillin/streptomycin (1%), and 375 μg/ml geneticin (Gibco). Cells were released from culture flasks using trypsin/EDTA, harvested, washed twice with ice-cold PBS (without Ca^2+ and Mg^2+), pelleted at 1,000 rpm for 5 min at 4° C., frozen and stored at −80° C. Frozen pellets were suspended in 20 ml HEPES-NaOH (20 mM, pH 7.4) containing 10 mM EDTA and homogenized with a Polytron (PT 6000, Kinematica) at 14,000 rpm for 20 s. The homogenate was centrifuged at 48,000×g for 30 min at 4° C. Subsequently, the supernatant was removed and discarded, and the pellet resuspended in 20 ml HEPES-NaOH (20 mM, pH 7.4) containing 0.1 mM EDTA using the Polytron (20 s at 14,000 rpm). This procedure was repeated and the final pellet resuspended in HEPES-NaOH containing 0.1 mM EDTA and homogenized using the Polytron. Typically, aliquots of 2 ml membrane portions were stored at −80° C. With each new membrane batch the dissociation constant (Kd) was determined via a saturation curve. The TAAR1 radioligand ^3[H]—(S)-4-[(ethyl-phenyl-amino)-methyl]-4,5-dihydro-oxazol-2-ylamine (described in WO 2008/098857) was used at a concentration equal to the calculated Kd value, that was usually around 0.7 nM, resulting in the binding of approximately 0.5% of the radioligand and a specific binding representing approximately 70% of the total binding. Nonspecific binding was defined as the amount of ^3[H]—(S)-4-[(ethyl-phenyl-amino)-methyl]-4,5-dihydro-oxazol-2-ylamine bound in the presence of 10 μM unlabeled ligand. All compounds were tested at a broad range of concentrations ([…]) in duplicates. […] The 96 deep well plates were incubated for 1 hr at 4° C. Incubations were terminated by rapid filtration through Unifilter-96 plates (Packard Instrument Company) and glass filters GF/C (Perkin Elmer) presoaked for 1 hr in polyethylenimine (0.3%) and washed 3 times with 1 ml of cold binding buffer. After addition of 45 μl of Microscint 40 (PerkinElmer) the Unifilter-96 plate was sealed and after 1 hr the radioactivity counted using a TopCount Microplate Scintillation Counter (Packard Instrument Company).

The target in test [2] is rat TAAR1 (Rattus norvegicus (Rat), UniProt Q923Y9). The experiment in a line: Radioligand binding assay on rat TAAR1. The conditions noted are these: membranes of HEK-293 cells stably expressing rat TAAR1; second value of cell mouse/rat. As to the method:
as §1, §2, §3
Radioligand Binding Assay on rat TAAR1
as §4
HEK-293 cells stably expressing rat TAAR1 were maintained at 37° C. and 5% CO2 in DMEM high glucose medium, containing fetal calf serum (10%, heat inactivated for 30 min at 56° C.), penicillin/streptomycin (1%), and 375 μg/ml geneticin (Gibco). Cells were released from culture flasks using trypsin/EDTA, harvested, washed twice with ice-cold PBS (without Ca^2+ and Mg^2+), pelleted at 1,000 rpm for 5 min at 4° C., frozen and stored at −80° C. Frozen pellets were suspended in 20 ml HEPES-NaOH (20 mM, pH 7.4) containing 10 mM EDTA and homogenized with a Polytron (PT 6000, Kinematica) at 14,000 rpm for 20 s. The homogenate was centrifuged at 48,000×g for 30 min at 4° C. Subsequently, the supernatant was removed and discarded, and the pellet resuspended in 20 ml HEPES-NaOH (20 mM, pH 7.4) containing 0.1 mM EDTA using the Polytron (20 s at 14,000 rpm). This procedure was repeated and the final pellet resuspended in HEPES-NaOH containing 0.1 mM EDTA and homogenized using the Polytron. Typically, aliquots of 2 ml membrane portions were stored at −80° C. With each new membrane batch the dissociation constant (Kd) was determined via a saturation curve.
Nonspecific binding was defined as the amount of ^3-[H]-(S)-4-[(ethyl-phenyl-amino)-methyl]-4,5-dihydro-oxazol-2-ylamine bound in the presence of 10 μM unlabeled ligand. All compounds were tested at a broad range of concentrations (10 pM to 10 μM) in duplicates. […] The 96 deep well plates were incubated for 1 hr at 4° C. Incubations were terminated by rapid filtration through Unifilter-96 plates (Packard Instrument Company) and glass filters GF/C (Perkin Elmer) presoaked for 1 hr in polyethylenimine (0.3%) and washed 3 times with 1 ml of cold binding buffer. After addition of 45 μl of Microscint 40 (PerkinElmer) the Unifilter-96 plate was sealed and after 1 hr the ratioactivity counted using a TopCount Microplate Scintillation Counter (Packard Instrument Company).

The structures appear in SMILES notation. Where a name gives a salt, the structure may show the parent alone.

mouse TAAR1, sequence (Q923Y8 whole entry): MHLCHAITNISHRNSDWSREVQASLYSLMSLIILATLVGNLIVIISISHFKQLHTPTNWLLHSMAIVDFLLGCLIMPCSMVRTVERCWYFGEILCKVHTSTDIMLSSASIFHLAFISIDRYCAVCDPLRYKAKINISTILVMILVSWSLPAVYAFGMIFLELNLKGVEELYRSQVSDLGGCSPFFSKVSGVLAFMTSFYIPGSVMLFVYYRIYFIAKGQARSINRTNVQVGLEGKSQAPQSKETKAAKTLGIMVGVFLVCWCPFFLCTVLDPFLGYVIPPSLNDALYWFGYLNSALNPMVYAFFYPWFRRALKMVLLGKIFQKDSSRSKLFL
rat TAAR1, sequence (Q923Y9 whole entry): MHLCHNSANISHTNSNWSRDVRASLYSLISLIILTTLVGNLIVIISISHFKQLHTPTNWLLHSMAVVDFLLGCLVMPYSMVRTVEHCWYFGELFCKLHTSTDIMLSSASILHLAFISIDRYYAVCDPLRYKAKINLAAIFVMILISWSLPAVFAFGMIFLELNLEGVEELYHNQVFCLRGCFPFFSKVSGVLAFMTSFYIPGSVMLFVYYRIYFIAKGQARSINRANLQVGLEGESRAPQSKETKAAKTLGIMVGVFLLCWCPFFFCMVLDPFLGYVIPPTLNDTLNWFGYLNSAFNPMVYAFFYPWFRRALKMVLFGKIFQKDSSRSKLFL

One may read the Ki as a measure of affinity in units of concentration, obtained from inhibition or displacement. Read a low Ki as higher affinity. As to `O=C(Nc1ccc([C@H]2CNCCO2)cc1)c1ccn(-c2ccc(C(F)(F)F)cn2)n1` [Example 33, (S)—N-(4-(Morpholin-2-yl)phenyl)-1-(5-(trifluoromethyl)pyridin-2-yl)-1H-pyrazole-3-carboxamide hydrochloride], the results for the Ki in test [1] and in test [2] were 0.0028 µM and 0.0016 µM, respectively.
For the molecule `N#Cc1ccc(-n2ccc(C(=O)Nc3ccc([C@H]4CNCCO4)cc3)n2)cc1` [Example 34, (S)-1-(4-Cyanophenyl)-N-(4-(morpholin-2-yl)phenyl)-1H-pyrazole-3-carboxamide hydrochloride], the Ki was 0.0037 µM in test [1] and 0.0092 µM in test [2].
The like results for `O=C(Nc1ccc([C@@H]2CNCCO2)cc1)c1ccn(-c2ccc(C(F)(F)F)cn2)n1` [Example 35, (R)—N-(4-(Morpholin-2-yl)phenyl)-1-(5-(trifluoromethyl)pyridin-2-yl)-1H-pyrazole-3-carboxamide hydrochloride] were, in that order, 0.0022 µM and 0.0006 µM.
The like results for `N#Cc1cccc(-c2cc(C(=O)Nc3ccc([C@@H]4CCCNC4)cc3)[nH]n2)c1` [Example 36, (S)-3-(3-Cyanophenyl)-N-(4-(piperidin-3-yl)phenyl)-1H-pyrazole-5-carboxamide hydrochloride] were, in that order, 0.0014 µM and 0.0138 µM.
The like results for `N#Cc1cccc(-c2cc(C(=O)Nc3ccc([C@H]4CCCNC4)cc3)[nH]n2)c1` [Example 37, (R)-3-(3-Cyanophenyl)-N-(4-(piperidin-3-yl)phenyl)-1H-pyrazole-5-carboxamide hydrochloride] were, in that order, 0.0017 µM and 0.0027 µM.
Turning to `N#Cc1cc(-c2cc(C(=O)Nc3ccc([C@H]4CNCCO4)cc3)[nH]n2)ccc1F` [Example 39, (S)-5-(3-Cyano-4-fluorophenyl)-N-(4-(morpholin-2-yl)phenyl)-1H-pyrazole-3-carboxamide hydrochloride], the figures for the Ki in test [1] and in test [2] were 0.0014 µM and 0.003 µM, respectively.
Regarding `O=C(Nc1ccc([C@H]2CNCCO2)cc1)c1cc(-c2cccc(OC(F)F)c2)n[nH]1` [Example 40, (S)-3-(3-(Difluoromethoxy)phenyl)-N-(4-(morpholin-2-yl)phenyl)-1H-pyrazole-5-carboxamide hydrochloride], the Ki came to 0.0005 µM in test [1] and 0.0013 µM in test [2].
Regarding `CCn1nc(C(=O)Nc2ccc([C@H]3CNCCO3)cc2)cc1-c1cccc(OC(F)F)c1` [Example 41, (S)-5-(3-(Difluoromethoxy)phenyl)-1-ethyl-N-(4-(morpholin-2-yl)phenyl)-1H-pyrazole-3-carboxamide hydrochloride], the values for the Ki in test [1] and in test [2] were 0.0025 µM and 0.0016 µM, respectively.
In the same order, the values of `CCn1nc(-c2cccc(OC(F)F)c2)cc1C(=O)Nc1ccc([C@H]2CNCCO2)cc1` [Example 42, (S)-3-(3-(Difluoromethoxy)phenyl)-1-ethyl-N-(4-(morpholin-2-yl)phenyl)-1H-pyrazole-5-carboxamide hydrochloride] are 0.001 µM and 0.0021 µM.
In the same order, the values of `N#Cc1cccc(-c2cc(C(=O)Nc3ccc([C@H]4CNCCO4)cc3)[nH]n2)c1F` [Example 43, (S)-3-(3-Cyano-2-fluorophenyl)-N-(4-(morpholin-2-yl)phenyl)-1H-pyrazole-5-carboxamide hydrochloride] are 0.0016 µM and 0.011 µM.
In the same order, the values of `Cn1nc(-c2cccc(OC(F)F)c2)cc1C(=O)Nc1ccc([C@H]2CNCCO2)cc1` [Example 44, (S)-3-(3-(Difluoromethoxy)phenyl)-1-methyl-N-(4-(morpholin-2-yl)phenyl)-1H-pyrazole-5-carboxamide hydrochloride] are 0.0663 µM and 0.0262 µM.
As to `O=C(Nc1ccc([C@H]2CNCCO2)cc1)c1ccn(-c2ccc(OC(F)F)cc2)n1` [Example 45, (S)-1-(4-(Difluoromethoxy)phenyl)-N-(4-(morpholin-2-yl)phenyl)-1H-pyrazole-3-carboxamide hydrochloride], the figures for the Ki in test [1] and in test [2] were 0.0018 µM and 0.0014 µM, respectively.
Take `O=C(Nc1ccc([C@@H]2CNCCO2)cc1)c1ccn(-c2ccc(OC(F)F)cc2)n1` [Example 46, (R)-1-(4-(Difluoromethoxy)phenyl)-N-(4-(morpholin-2-yl)phenyl)-1H-pyrazole-3-carboxamide hydrochloride]: the inhibitory constant (Ki) in test [1] worked out at 0.004 µM; in test [2] it was 0.0006 µM.
The like results for `O=C(Nc1ccc([C@H]2CNCCO2)cc1)c1ccn(-c2ncc(C(F)(F)F)cn2)n1` [Example 47, (S)—N-(4-(Morpholin-2-yl)phenyl)-1-(5-(trifluoromethyl)pyrimidin-2-yl)-1H-pyrazole-3-carboxamide hydrochloride] were, in that order, 0.0198 µM and 0.0196 µM.
In the same order, the values of `O=C(Nc1ccc([C@H]2CNCCO2)cc1)c1ccn(-c2cncc(Cl)n2)n1` [Example 48, (S)-1-(6-Chloropyrazin-2-yl)-N-(4-(morpholin-2-yl)phenyl)-1H-pyrazole-3-carboxamide hydrochloride] are 0.0086 µM and 0.0118 µM.
In the same order, the values of `O=C(Nc1ccc([C@H]2CNCCO2)cc1)c1ccn(-c2nccnc2Cl)n1` [Example 49, (S)-1-(3-Chloropyrazin-2-yl)-N-(4-(morpholin-2-yl)phenyl)-1H-pyrazole-3-carboxamide hydrochloride] are 0.0142 µM and 0.139 µM.
As for `O=C(Nc1ccc([C@H]2CNCCO2)cc1)c1ccn(-c2cnc(Cl)cn2)n1` [Example 50, (S)-1-(5-Chloropyrazin-2-yl)-N-(4-(morpholin-2-yl)phenyl)-1H-pyrazole-3-carboxamide hydrochloride], the Ki amounted to 0.0027 µM in test [1] and 0.0091 µM in test [2].
In the case of `O=C(Nc1ccc([C@H]2CNCCO2)cc1)c1ccn(-c2cc(C(F)(F)F)ncn2)n1` [Example 51, (S)—N-(4-(Morpholin-2-yl)phenyl)-1-(6-(trifluoromethyl)pyrimidin-4-yl)-1H-pyrazole-3-carboxamide hydrochloride], the Ki in test [1] stood at 0.0142 µM; in test [2], 0.0071 µM.
